Source: patent US10111874B2, “Combination therapies for treatment of cancer” (Araxes Pharma LLC, priority 2014, dated 2018)

Target: T1, KRAS G12C 1-169, his-tagged protein, GDP-loaded (Homo sapiens, UniProt P01116, G12C)
T1 construct: KRAS G12C 1-169, his-tagged protein, GDP-loaded
Assay: Biochemical assay: covalent binding to KRAS G12C analyzed by mass spectrometry
Experimental: Compounds were tested for activity as follows:
Compounds were diluted to 50× final test concentration in DMSO in 96-well storage plates. […] Reactions were mixed carefully and thoroughly by pipetting up/down with a 200 μl multi-channel pipettor. […] 5 μl of 2% formic acid (Fisher cat#A117) in DI H2O was then added to each well followed by mixing with a pipette. The plate was then resealed with aluminum seal and stored on dry ice until analyzed as described below.
The above described assays were analyzed by mass spectrometry according to the following procedure:
The MS instrument is set to positive polarity, 2 GHz resolution, and low mass (1700) mode and allowed to equilibrate for 30 minutes. The instrument is then calibrated, switched to acquisition mode and the appropriate method loaded.
After another 30 minute equilibration time, a blank batch (i.e., buffer) is run to ensure equipment is operating properly. The samples are thawed at 37° C. for 10 minutes, briefly centrifuged, and transfer to the bench top. Wells A1 and H12 are spiked with 1 μL 500 μM internal standard peptide, and the plates centrifuged at 2000×g for 5 minutes. The method is then run and masses of each individual well recorded.
The masses (for which integration data is desired) for each well are pasted into the platemap and exported from the analysis. Masses for the internal standards are exported as well. The data at 50 ppm is extracted for the +19 charge state, and identity of well A1 is assigned using the internal standard spike and integrated. Peak data is exported as a TOF list and the above steps are repeated individually, for the +20, 21, 22, 23, 24, and 25 charge states.

[1] = compounds 247-342, measured at 30 min

Molecule | Binding % (determined at 24 hrs) | Binding % [1]
1-(4-(2′,6-dichloro-4-methoxybiphenylcarbonyl)piperazin-1-yl)prop-2-en-1-one [III-1] | + (+indicates binding activity from 5% to 10%) | –
C=CC(=O)N1CCN(c2ncnc3c(F)c(-c4ccc(F)cc4F)c(F)cc23)CC1 [Compound 296] | – | + (+indicates binding activity from 5% to 25%)
C=CC(=O)N1CCN(c2ncnc3c(F)c(-c4c(C)ccc5[nH]ncc45)c(F)cc23)CC1 [Compound 297, 1-(4-(6,8-difluoro-7-(5-methyl-1H-indazol-4-yl)quinazolin-4-yl)piperazin-1-yl)prop-2-en-1-one] | – | + (+indicates binding activity from 5% to 25%)
C=CC(=O)N1CCN(c2ncnc3c(F)c(-c4c(C)ccc5cn[nH]c45)c(F)cc23)CC1 [Compound 298, 1-(4-(6,8-difluoro-7-(6-methyl-1H-indazol-7-yl)-quinazolin-4-yl)piperazin-1-yl)prop-2-en-1-one] | – | ++ (++indicates binding activity greater than 25% and up to 50%)
C=CC(=O)N1CCN(c2ncnc3c(F)c(-c4c(O)cccc4F)c(F)cc23)CC1 [Compound 299, 1-(4-(6,8-difluoro-7-(2-fluoro-6-hydroxyphenyl)quinazolin-4-yl)piperazin-1-yl)prop-2-en-1-one] | – | + (+indicates binding activity from 5% to 25%)
C=CC(=O)N1CCN(c2nc(OC3CCOC3)nc3cc(-c4c(C)ccc5[nH]ncc45)c(Cl)cc23)CC1 (centres unmarked) [Compound 300, 1-(4-(6-chloro-7-(5-methyl-1H-indazol-4-yl)-2-(tetrahydrofuran-3-yloxy)quinazolin-4-yl)piperazin-1-yl)prop-2-en-1-one] | – | ++ (++indicates binding activity greater than 25% and up to 50%)
CN(C)C/C=C/C(=O)N1CCN(c2ncnc3c(F)c(-c4c(O)cccc4F)c(Cl)cc23)CC1 [Compound 301, (E)-1-(4-(6-chloro-8-fluoro-7-(2-fluoro-6-hydroxyphenyl)quinazolin-4-yl)piperazin-1-yl)-4-(dimethylamino)but-2-en-1-one] | – | ++ (++indicates binding activity greater than 25% and up to 50%)
C=CC(=O)N1CCN(c2ncnc3c(Cl)c(-c4c(O)ccc5ccccc45)c(Cl)cc23)CC1 [Compound 303, 1-(4-(6,8-dichloro-7-(2-hydroxynaphthalen-1-yl)quinazolin-4-yl)piperazin-1-yl)prop-2-en-1-one] | – | ++ (++indicates binding activity greater than 25% and up to 50%)
C=CC(=O)N1CCN(c2nc(-c3cn[nH]c3)nc3c(F)c(-c4c(C)ccc5[nH]ncc45)c(Cl)cc23)CC1 [Compound 304, 1-(4-(6-chloro-8-fluoro-7-(5-methyl-1H-indazol-4-yl)-2-(1H-pyrazol-4-yl)quinazolin-4-yl)piperazin-1-yl)prop-2-en-1-one] | – | ++ (++indicates binding activity greater than 25% and up to 50%)
C=CC(=O)N1CCN(c2cnnc3cc(-c4c(C)ccc5[nH]ncc45)c(C(F)(F)F)cc23)CC1 [Compound 305, 1-(4-(7-(5-methyl-1H-indazol-4-yl)-6-(trifluoromethyl)cinnolin-4-yl)piperazin-1-yl)prop-2-en-1-one] | – | ++ (++indicates binding activity greater than 25% and up to 50%)
C=CC(=O)N1CCN(c2ncnc3c(OC)c(-c4ccc(F)cc4F)c(Cl)cc23)CC1 [Compound 306, 1-(4-(6-chloro-7-(2,4-difluorophenyl)-8-methoxyquinazolin-4-yl)piperazin-1-yl)prop-2-en-1-one] | – | ++ (++indicates binding activity greater than 25% and up to 50%)
C=CC(=O)N1CCN(c2ncnc3c(F)c(-c4cc(C(F)F)ccc4F)c(Cl)cc23)CC1 [Compound 307, 1-(4-(6-chloro-7-(5-(difluoromethyl)-2-fluorophenyl)-8-fluoroquinazolin-4-yl)piperazin-1-yl)prop-2-en-1-one] | – | ++ (++indicates binding activity greater than 25% and up to 50%)
C=CC(=O)N1CCN(c2c(C#N)cnc3c(F)c(-c4c(C)ccc5cn[nH]c45)c(Cl)cc23)CC1 [Compound 308, 4-(4-acryloylpiperazin-1-yl)-6-chloro-8-fluoro-7-(6-methyl-1H-indazol-7-yl)quinoline-3-carbonitrile] | – | +++ (+++indicates binding activity greater than 50% and up to 75%)
C=CC(=O)N1CCN(c2nc(-c3ccn[nH]3)nc3c(F)c(-c4c(C)ccc5[nH]ncc45)c(Cl)cc23)CC1 [Compound 309, 1-(4-(6-chloro-8-fluoro-7-(5-methyl-1H-indazol-4-yl)-2-(1H-pyrazol-5-yl)quinazolin-4-yl)piperazin-1-yl)prop-2-en-1-one] | – | +++ (+++indicates binding activity greater than 50% and up to 75%)
CN(C)C/C=C/C(=O)N1CCN(c2c(C#N)cnc3c(F)c(-c4cc(O)cc5ccccc45)c(Cl)cc23)CC1 [Compound 310, (E)-6-chloro-4-(4-(4-(dimethylamino)but-2-enoyl)piperazin-1-yl)-8-fluoro-7-(3-hydroxynaphthalen-1-yl)quinoline-3-carbonitrile] | – | ++++ (++++indicates binding activity greater than 75%)
Cc1ccc2[nH]ncc2c1-c1c(Cl)cc2c(N3CCN(C(=O)/C=C/CN)CC3)ncnc2c1F [Compound 311, (E)-4-amino-1-(4-(6-chloro-8-fluoro-7-(5-methyl-1H-indazol-4-yl)quinazolin-4-yl)piperazin-1-yl)but-2-en-1-one] | – | +++ (+++indicates binding activity greater than 50% and up to 75%)
C=CC(=O)N1CCN(c2nc(NC)nc3cc(-c4c(C)ccc5[nH]ncc45)c(Cl)cc23)CC1 [Compound 312, 1-(4-(6-chloro-7-(5-methyl-1H-indazol-4-yl)-2-(methylamino)quinazolin-4-yl)piperazin-1-yl)prop-2-en-1-one] | – | ++++ (++++indicates binding activity greater than 75%)
C=CC(=O)N1CCN(c2ncnc3c(OC)c(-c4c(O)cccc4F)c(Cl)cc23)CC1 [Compound 313, 1-(4-(6-chloro-7-(2-fluoro-6-hydroxyphenyl)-8-methoxyquinazolin-4-yl)piperazin-1-yl)prop-2-en-1-one] | – | +++ (+++indicates binding activity greater than 50% and up to 75%)
C=CC(=O)N1CCN(c2nc(OCCN(C)C)nc3cc(-c4c(C)ccc5[nH]ncc45)c(Cl)cc23)CC1 [Compound 314, 1-(4-(6-chloro-2-(2-(dimethylamino)ethoxy)-7-(5-methyl-1H-indazol-4-yl)quinazolin-4-yl)piperazin-1-yl)prop-2-en-1-one] | – | ++++ (++++indicates binding activity greater than 75%)
Cc1ccc2[nH]ncc2c1-c1c(Cl)cc2c(N3CCN(C(=O)/C=C/CO)CC3)ncnc2c1F [Compound 315, (E)-1-(4-(6-chloro-8-fluoro-7-(5-methyl-1H-indazol-4-yl)quinazolin-4-yl)piperazin-1-yl)-4-hydroxybut-2-en-1-one] | – | + (+indicates binding activity from 5% to 25%)
C=CC(=O)N1CCN(c2nc(OC3CCCOC3)nc3cc(-c4c(C)ccc5[nH]ncc45)c(Cl)cc23)CC1 (centres unmarked) [Compound 316, 1-(4-(6-chloro-7-(5-methyl-1H-indazol-4-yl)-2-(tetrahydro-2H-pyran-3-yloxy)quinazolin-4-yl)piperazin-1-yl)prop-2-en-1-one] | – | ++ (++indicates binding activity greater than 25% and up to 50%)
C=CC(=O)N1CCN(c2ncnc3cc(-c4c(O)cccc4F)c(Cl)c(C(F)(F)F)c23)CC1 [Compound 318, 1-(4-(6-chloro-7-(2-fluoro-6-hydroxyphenyl)-5-(trifluoromethyl)quinazolin-4-yl)piperazin-1-yl)prop-2-en-1-one] | – | + (+indicates binding activity from 5% to 25%)
C=CC(=O)N1CCN(c2nc(N)nc3cc(-c4c(C)ccc5[nH]ncc45)c(Cl)cc23)CC1 [Compound 319, 1-(4-(2-amino-6-chloro-7-(5-methyl-1H-indazol-4-yl)quinazolin-4-yl)piperazin-1-yl)prop-2-en-1-one] | – | ++ (++indicates binding activity greater than 25% and up to 50%)
C=CC(=O)N1CCN(c2ncnc3c(F)c(-c4c(C)ccc5[nH]ncc45)c(Cl)cc23)CC1CO (centres unmarked) [Compound 320, 1-(4-(6-chloro-8-fluoro-7-(5-methyl-1H-indazol-4-yl)quinazolin-4-yl)-2-(hydroxymethyl)piperazin-1-yl)prop-2-en-1-one] | – | ++ (++indicates binding activity greater than 25% and up to 50%)
C=CC(=O)N1CCN(c2ncnc3c(O)c(-c4ccc(F)cc4F)c(Cl)cc23)CC1 [Compound 321, 1-(4-(6-chloro-7-(2,4-difluorophenyl)-8-hydroxyquinazolin-4-yl)piperazin-1-yl)prop-2-en-1-one] | – | + (+indicates binding activity from 5% to 25%)
C=CC(=O)N1CCN(c2nc(Nc3cnn(C)c3)nc3c(F)c(-c4c(C)ccc5[nH]ncc45)c(Cl)cc23)CC1 [Compound 322, 1-(4-(6-chloro-8-fluoro-7-(5-methyl-1H-indazol-4-yl)-2-(1-methyl-1H-pyrazol-4-ylamino)quinazolin-4-yl)piperazin-1-yl)prop-2-en-1-one] | – | +++ (+++indicates binding activity greater than 50% and up to 75%)
